Data: PubChem BioAssay (NCI)
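Abbreviation: GI50, concentration required for 50% inhibition of growth. At the TGI there is no net growth.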

Columns and labels:
Test in all cases: NCI-60 cell line screen, 384-well format
786-0 renal = tested on: 786-0 renal
A498 renal = tested on: A498 renal
A549 NSCLC = tested on: A549 NSCLC
ACHN renal = tested on: ACHN renal
BT-549 breast = tested on: BT-549 breast
CAKI-1 renal = tested on: CAKI-1 renal
CCRF-CEM leukemia = tested on: CCRF-CEM leukemia
COLO 205 colon = tested on: COLO 205 colon
DU-145 prostate = tested on: DU-145 prostate
EKVX NSCLC = tested on: EKVX NSCLC
HCC-2998 colon = tested on: HCC-2998 colon
HCT-15 colon = tested on: HCT-15 colon
HL-60(TB) leukemia = tested on: HL-60(TB) leukemia
HOP-62 NSCLC = tested on: HOP-62 NSCLC
HOP-92 NSCLC = tested on: HOP-92 NSCLC
HS 578T breast = tested on: HS 578T breast
HT29 colon = tested on: HT29 colon
IGROV1 ovarian = tested on: IGROV1 ovarian
K-562 leukemia = tested on: K-562 leukemia
KM12 colon = tested on: KM12 colon
LOX IMVI melanoma = tested on: LOX IMVI melanoma
M14 melanoma = tested on: M14 melanoma
MALME-3M melanoma = tested on: MALME-3M melanoma
MCF7 breast = tested on: MCF7 breast
MDA-MB-231 breast = tested on: MDA-MB-231 breast
MDA-MB-435 melanoma = tested on: MDA-MB-435 melanoma
MDA-MB-468 breast = tested on: MDA-MB-468 breast
MOLT-4 leukemia = tested on: MOLT-4 leukemia
NCI-H226 lung = tested on: NCI-H226 lung
NCI-H23 lung = tested on: NCI-H23 lung
NCI-H322M lung = tested on: NCI-H322M lung
NCI-H460 NSCLC = tested on: NCI-H460 NSCLC
NCI-H522 lung = tested on: NCI-H522 lung
NCI/ADR-RES ovarian = tested on: NCI/ADR-RES ovarian
OVCAR-3 ovarian = tested on: OVCAR-3 ovarian
OVCAR-4 ovarian = tested on: OVCAR-4 ovarian
OVCAR-5 ovarian = tested on: OVCAR-5 ovarian
OVCAR-8 ovarian = tested on: OVCAR-8 ovarian
PC-3 prostate = tested on: PC-3 prostate
RPMI-8226 leukemia = tested on: RPMI-8226 leukemia
RXF 393 renal = tested on: RXF 393 renal
SF-268 CNS = tested on: SF-268 CNS
SF-295 CNS = tested on: SF-295 CNS
SF-539 CNS = tested on: SF-539 CNS
SK-MEL-28 melanoma = tested on: SK-MEL-28 melanoma
SK-MEL-5 melanoma = tested on: SK-MEL-5 melanoma
SK-OV-3 ovarian = tested on: SK-OV-3 ovarian
SN12C renal = tested on: SN12C renal
SNB-19 CNS = tested on: SNB-19 CNS
SNB-75 CNS = tested on: SNB-75 CNS
SR leukemia = tested on: SR leukemia
SW-620 colon = tested on: SW-620 colon
T-47D breast = tested on: T-47D breast
TK-10 renal = tested on: TK-10 renal
UACC-257 melanoma = tested on: UACC-257 melanoma
UACC-62 melanoma = tested on: UACC-62 melanoma
UO-31 renal = tested on: UO-31 renal

Cc1c(C#N)cccc1[C@@H](C)Nc1nnc(C)c2cnc(N3CCOCC3)cc12
GI50 ([…]-0 renal): 13.1 µM
TGI (786-0 renal): 26.5 µM
GI50 (A498 renal): 12.1 µM
TGI (A498 renal): 24.6 µM
GI50 (A549 NSCLC): 16.7 µM
TGI (A549 NSCLC): 36.3 µM
GI50 (ACHN renal): 14.5 µM
TGI (ACHN renal): 31.6 µM
GI50 (BT-549 breast): 14.1 µM
TGI (BT-549 breast): 27.4 µM
GI50 (CAKI-1 renal): 10.5 µM
TGI (CAKI-1 renal): 23 µM
GI50 (CCRF-CEM leukemia): 19.5 µM
TGI (CCRF-CEM leukemia): 33.7 µM
GI50 (COLO 205 colon): 16.5 µM
TGI (COLO 205 colon): 30.5 µM
GI50 (DU-145 prostate): 18.5 µM
TGI (DU-145 prostate): 37.6 µM
GI50 (EKVX NSCLC): 11.7 µM
TGI (EKVX NSCLC): 26.8 µM
GI50 (HCC-2998 colon): 18.3 µM
TGI (HCC-2998 colon): 33.3 µM
GI50 (HCT-15 colon): 16.1 µM
TGI (HCT-15 colon): 29.9 µM
GI50 (HL-60(TB) leukemia): 21.8 µM
TGI (HL-60(TB) leukemia): 36.2 µM
GI50 (HOP-62 NSCLC): 14.2 µM
TGI (HOP-62 NSCLC): 27.9 µM
GI50 (HOP-92 NSCLC): 0.0569 µM
TGI (HOP-92 NSCLC): 14.3 µM
GI50 (HS 578T breast): 13.8 µM
TGI (HS 578T breast): 26.9 µM
GI50 (HT29 colon): 15.7 µM
TGI (HT29 colon): 30 µM
GI50 (IGROV1 ovarian): 15.5 µM
TGI (IGROV1 ovarian): 31.4 µM
GI50 (K-562 leukemia): 0.163 µM
TGI (K-562 leukemia): 15 µM
GI50 (KM12 colon): 4.85 µM
TGI (KM12 colon): 22.2 µM
GI50 (LOX IMVI melanoma): 14 µM
TGI (LOX IMVI melanoma): 27.1 µM
GI50 (M14 melanoma): 17.2 µM
TGI (M14 melanoma): 31.1 µM
GI50 (MALME-3M melanoma): 16.6 µM
TGI (MALME-3M melanoma): 30.6 µM
GI50 (MCF7 breast): 15.8 µM
TGI (MCF7 breast): 35.5 µM
GI50 (MDA-MB-231 breast): 14.3 µM
TGI (MDA-MB-231 breast): 29.3 µM
GI50 (MDA-MB-435 melanoma): 18.2 µM
TGI (MDA-MB-435 melanoma): 32.4 µM
GI50 (MDA-MB-468 breast): 0.39 µM
TGI (MDA-MB-468 breast): 6.37 µM
GI50 (MOLT-4 leukemia): 12.8 µM
TGI (MOLT-4 leukemia): 25.5 µM
GI50 (NCI-H226 lung): 12.7 µM
TGI (NCI-H226 lung): 26.5 µM
GI50 (NCI-H23 lung): 10.6 µM
TGI (NCI-H23 lung): 23.2 µM
GI50 (NCI-H322M lung): 11.8 µM
TGI (NCI-H322M lung): 26.6 µM
GI50 (NCI-H460 NSCLC): 17.5 µM
TGI (NCI-H460 NSCLC): 32.2 µM
GI50 (NCI-H522 lung): 11.5 µM
TGI (NCI-H522 lung): 24 µM
GI50 (NCI/ADR-RES ovarian): 16.6 µM
TGI (NCI/ADR-RES ovarian): 32.1 µM
GI50 (OVCAR-3 ovarian): 13.4 µM
TGI (OVCAR-3 ovarian): 26.4 µM
GI50 (OVCAR-4 ovarian): 8.18 µM
TGI (OVCAR-4 ovarian): 22 µM
GI50 (OVCAR-5 ovarian): 19.1 µM
TGI (OVCAR-5 ovarian): 38.9 µM
GI50 (OVCAR-8 ovarian): 15 µM
TGI (OVCAR-8 ovarian): 29 µM
GI50 (PC-3 prostate): 17 µM
TGI (PC-3 prostate): 32.3 µM
GI50 (RPMI-8226 leukemia): 11.2 µM
TGI (RPMI-8226 leukemia): 23.3 µM
GI50 (RXF 393 renal): 12 µM
TGI (RXF 393 renal): 24.6 µM
GI50 (SF-268 CNS): 16 µM
TGI (SF-268 CNS): 30.8 µM
GI50 (SF-295 CNS): 14.7 µM
TGI (SF-295 CNS): 28 µM
GI50 (SF-539 CNS): 15.9 µM
TGI (SF-539 CNS): 29.3 µM
GI50 (SK-MEL-28 melanoma): 15.4 µM
TGI (SK-MEL-28 melanoma): 29.7 µM
GI50 (SK-MEL-5 melanoma): 11 µM
TGI (SK-MEL-5 melanoma): 23 µM
GI50 (SK-OV-3 ovarian): 16.7 µM
TGI (SK-OV-3 ovarian): 30.7 µM
GI50 (SN12C renal): 1.65 µM
TGI (SN12C renal): 19.9 µM
GI50 (SNB-19 CNS): 14.3 µM
TGI (SNB-19 CNS): 37.5 µM
GI50 (SNB-75 CNS): 16.3 µM
TGI (SNB-75 CNS): 33.3 µM
GI50 (SR leukemia): 0.749 µM
TGI (SR leukemia): 18.1 µM
GI50 (SW-620 colon): 12.6 µM
TGI (SW-620 colon): 25.4 µM
GI50 (T-47D breast): 11.3 µM
TGI (T-47D breast): 24.6 µM
GI50 (TK-10 renal): 15.2 µM
TGI (TK-10 renal): 38.9 µM
GI50 (UACC-257 melanoma): 19.5 µM
TGI (UACC-257 melanoma): 33.9 µM
GI50 (UACC-62 melanoma): 16.6 µM
TGI (UACC-62 melanoma): 30.3 µM
GI50 (UO-31 renal): 13.3 µM
TGI (UO-31 renal): 26.8 µM
